Results published in patent US6365582B1, “S-substitute 11β-benzaldoxime-estra-4, 9-diene-carbonic acid thiolesters, method for the production thereof and pharmaceutical preparations containing these compounds” (Jenapharm GmbH & Co. KG, priority 1998, dated 2002).

Columns and labels:
[1] = target: T1, glucocorticoid receptor (Rattus norvegicus, UniProt P06536); assay: Receptor binding affinity, glucocorticoid receptor (competitive binding, thymus cytosol); details: Dexamethasone = 100%; thymus cytosol of adrenalectomized rat; tracer 3H-dexamethasone
T1 construct: receptors in the cytosol of animal target organs; from tissue; host or cells: thymus cytosol of the adrenalectomized rat
T1 sequence (P06536 1-795): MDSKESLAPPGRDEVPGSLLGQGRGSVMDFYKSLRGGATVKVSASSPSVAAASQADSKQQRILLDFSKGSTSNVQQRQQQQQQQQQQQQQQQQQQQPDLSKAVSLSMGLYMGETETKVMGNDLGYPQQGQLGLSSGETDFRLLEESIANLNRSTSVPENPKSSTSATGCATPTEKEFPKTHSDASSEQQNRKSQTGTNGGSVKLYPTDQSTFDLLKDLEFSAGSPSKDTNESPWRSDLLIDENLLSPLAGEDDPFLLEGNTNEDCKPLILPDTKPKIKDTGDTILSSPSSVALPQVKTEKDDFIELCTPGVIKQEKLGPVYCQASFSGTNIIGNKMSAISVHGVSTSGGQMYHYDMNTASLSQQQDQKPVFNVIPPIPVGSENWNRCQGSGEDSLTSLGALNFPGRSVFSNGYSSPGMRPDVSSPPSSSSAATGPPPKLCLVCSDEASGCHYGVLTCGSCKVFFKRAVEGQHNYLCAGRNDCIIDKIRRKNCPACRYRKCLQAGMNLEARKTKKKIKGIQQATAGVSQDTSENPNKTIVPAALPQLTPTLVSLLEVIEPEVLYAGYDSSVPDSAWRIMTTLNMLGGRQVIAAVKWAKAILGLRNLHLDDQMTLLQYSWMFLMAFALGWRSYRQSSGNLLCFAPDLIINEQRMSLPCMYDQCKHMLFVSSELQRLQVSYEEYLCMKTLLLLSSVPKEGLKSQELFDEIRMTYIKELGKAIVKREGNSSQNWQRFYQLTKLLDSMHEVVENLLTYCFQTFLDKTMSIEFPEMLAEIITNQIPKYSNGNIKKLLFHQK
Experimental: (§1) Measurement of the receptor binding affinity
(§2) The receptor binding affinity was determined by competitive binding of a specifically binding ^3H-labeled hormone (tracer) and the compound to be tested to receptors in the cytosol of animal target organs. Receptor saturation and reaction equilibrium were aimed at here. The following incubation conditions were chosen:
Glucocorticoid receptor: Thymus cytosol of the adrenalectomized rat. Thymi stored at −30° C.
Tracer: ^3H-dexamethasone, 20 nM.
Reference substance: dexamethasone.
(§3) After an incubation of receptor fraction, tracer and competitor for 18 h at 0-4° C., the bound and free steroid were separated by mixing in active carbon/dextran (1%/0.1%), centrifuging off and measuring the receptor-bound ^3H activity in the supernatant.

[2] = system: guinea pig in cycle; assay: Antiluteolysis test/ovulation inhibition test in the guinea pig in cycle; type: in vivo
Experimental: Antiluteolysis test/ovulation inhibition test in the guinea pig in cycle: This test is based on the fact that progesterone at the end of the cycle stimulates uterine prostaglandin secretion. In the guinea pig, the inhibition of this function leads to a persistence of the corpora lutea (antiluteolysis). […] This test thus allows the therapy-relevant typing of progesterone antagonists as ? pure” or ? agonistic” substances. Guinea pigs are treated with the test substance on day 10 to day 17 of the cycle. The progesterone concentrations in the serum are determined on day 10 before substance treatment and on the following days until autopsy ([…]., Beier, […]., Crundel, M. et al. in Current Concepts in Fertility Regulation and Reproduction, (eds). Puri, C. P. and Van Look, P. F. H. (1994) 303-328).

[3] = system: early pregnancy in the rat; assay: Inhibition of early pregnancy in the rat (early abortive action); type: in vivo; details: s.c., day 5-7 of pregnancy
Experimental: Inhibition of early pregnancy in the rat Female rats weighing 180-200 g were mated in the proestrus stage. On detection of sperm in the vaginal region on the next day, this is set as day 1 (d=1) of the pregnancy. The rats are treated with test substance or vehicle using 0.2 ml of benzoyl benzoate/castor oil (1+4 v/v) subcutaneously from day 5 to day 7 (d5-d7); autopsy is carried oust painlessly on day d9. The uterus horns was [sic] dissected and examined for intact or damaged nidation sites.

[4] = target: T2, progesterone receptor (Oryctolagus cuniculus, UniProt P06186); assay: Receptor binding affinity, progesterone receptor (competitive binding, uterus cytosol); details: Progesterone = 100%; uterus cytosol of estradiol-primed rabbit; tracer 3H-ORG 2058
T2 construct: receptors in the cytosol of animal target organs; from tissue; host or cells: uterus cytosol of the estradiol-primed rabbit
T2 sequence (P06186 1-930): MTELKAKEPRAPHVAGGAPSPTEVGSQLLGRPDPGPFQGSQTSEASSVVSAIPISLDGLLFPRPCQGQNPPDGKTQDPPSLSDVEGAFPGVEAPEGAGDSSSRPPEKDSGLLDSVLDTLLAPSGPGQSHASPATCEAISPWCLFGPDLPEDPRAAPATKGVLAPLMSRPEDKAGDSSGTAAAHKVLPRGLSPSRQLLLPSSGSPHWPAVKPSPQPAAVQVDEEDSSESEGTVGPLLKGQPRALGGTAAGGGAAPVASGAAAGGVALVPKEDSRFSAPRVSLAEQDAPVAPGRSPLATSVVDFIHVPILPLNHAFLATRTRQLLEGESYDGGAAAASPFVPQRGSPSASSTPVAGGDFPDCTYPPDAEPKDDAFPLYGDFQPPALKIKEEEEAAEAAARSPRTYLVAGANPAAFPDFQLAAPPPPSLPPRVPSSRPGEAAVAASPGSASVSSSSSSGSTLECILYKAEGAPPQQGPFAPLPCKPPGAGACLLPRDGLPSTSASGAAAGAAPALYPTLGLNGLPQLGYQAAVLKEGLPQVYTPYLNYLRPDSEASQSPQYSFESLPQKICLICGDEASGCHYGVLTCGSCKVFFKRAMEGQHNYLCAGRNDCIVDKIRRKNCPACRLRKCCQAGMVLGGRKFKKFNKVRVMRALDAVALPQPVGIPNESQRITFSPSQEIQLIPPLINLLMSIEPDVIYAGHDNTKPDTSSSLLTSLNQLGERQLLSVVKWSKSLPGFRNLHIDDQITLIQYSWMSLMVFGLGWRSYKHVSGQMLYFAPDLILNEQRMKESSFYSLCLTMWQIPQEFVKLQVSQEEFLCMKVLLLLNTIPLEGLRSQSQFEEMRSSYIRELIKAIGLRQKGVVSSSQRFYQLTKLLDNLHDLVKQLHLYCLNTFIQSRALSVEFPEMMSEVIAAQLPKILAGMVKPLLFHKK
Experimental: as §1, §2
Progesterone receptor Uterus cytosol of the estradiol-primed rabbit, stored at −30° C.
Buffer for homogenization and incubation: TED buffer 20 mM tris/HCl, pH [sic]=7.4; 1 mM ethylenediamine tetracetate, 2 mM dithiothreitol) containing 250 mM sucrose.
Reference substance: progesterone.
as §3

| Relative molar binding affinity RBA (%) to the glucocorticoid receptor [1] [%] | Relative molar binding affinity RBA (%) to the progesterone receptor [4] [%] | Structure (SMILES) | Inhibition of luteolysis / antiluteolytic activity (in words) ([2]; guinea pig in cycle) | Complete inhibition of pregnancy % ([3]; 0.3 mg/(animal × day)) [%] | Complete inhibition of pregnancy % ([3]; 1 mg/(animal × day)) [%] | Complete inhibition of pregnancy % ([3]; 3 mg/(animal × day)) [%] | Prostaglandin / PGFM levels in the blood (in words) ([2]; guinea pig) | Effect on the vaginal epithelium (in words) ([2]; guinea pig in cycle) |
| --- | --- | --- | --- | --- | --- | --- | --- | --- |
| 685 |  | CC#C[C@]1(O)CC[C@H]2[C@@H]3CCC4=CC(=O)CCC4=C3[C@@H](c3ccc(N(C)C)cc3)C[C@@]21C [RU 486, mifepristone, reference compound] | slightly antiluteolytically active | 0 | 20 | 100 |  |  |
| 39 | 22 | CN(C)c1ccc([C@H]2C[C@]3(C)[C@@H](CC[C@]3(O)CCCO)[C@@H]3CCC4=CC(=O)CCC4=C32)cc1 [ZK 98299, onapristone, reference compound] |  |  |  |  | very low prostaglandin levels in the blood | induces proliferation and keratinization of the vaginal epithelium |
